From BindingDB's records for doi:10.1046/j.1471-4159.1998.71062558.x (F. Hoffmann-La Roche, 1998) come the findings set out here.

The target of the assay is Metabotropic glutamate receptor 2 (Homo sapiens, UniProt Q14416).
Metabotropic glutamate receptor 2, sequence (Q14416 whole entry): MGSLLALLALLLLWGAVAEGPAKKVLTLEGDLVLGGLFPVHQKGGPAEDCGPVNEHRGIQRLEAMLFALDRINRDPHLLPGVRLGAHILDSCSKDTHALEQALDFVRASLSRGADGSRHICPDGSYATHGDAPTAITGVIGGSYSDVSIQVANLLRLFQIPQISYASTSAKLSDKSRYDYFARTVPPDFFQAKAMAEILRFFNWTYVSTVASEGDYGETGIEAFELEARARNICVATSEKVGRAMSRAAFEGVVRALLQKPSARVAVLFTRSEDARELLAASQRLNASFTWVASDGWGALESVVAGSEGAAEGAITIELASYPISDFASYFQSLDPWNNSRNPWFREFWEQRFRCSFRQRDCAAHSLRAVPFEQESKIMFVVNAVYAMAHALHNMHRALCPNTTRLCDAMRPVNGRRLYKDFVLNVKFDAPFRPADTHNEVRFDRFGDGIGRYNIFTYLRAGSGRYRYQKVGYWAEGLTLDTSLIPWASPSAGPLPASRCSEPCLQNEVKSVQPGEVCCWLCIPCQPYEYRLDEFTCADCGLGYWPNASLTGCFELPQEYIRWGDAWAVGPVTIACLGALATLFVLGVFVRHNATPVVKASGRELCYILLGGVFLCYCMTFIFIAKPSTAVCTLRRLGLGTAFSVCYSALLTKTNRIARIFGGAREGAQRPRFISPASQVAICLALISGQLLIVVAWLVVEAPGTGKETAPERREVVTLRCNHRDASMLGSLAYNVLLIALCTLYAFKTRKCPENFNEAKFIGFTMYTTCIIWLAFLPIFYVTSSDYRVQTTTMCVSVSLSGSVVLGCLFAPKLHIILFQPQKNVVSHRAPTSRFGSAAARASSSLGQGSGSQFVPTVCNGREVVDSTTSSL
By Ki is commonly meant a dissociation constant, usually derived from enzyme kinetics or from competition with a known ligand. Low values mean tighter binding, high ones weaker binding. As for `N[C@@H](CCP(=O)(O)O)C(=O)O`, affinity was put at a Ki of 680 nM. Molecule `CC(N)(C(=O)O)c1ccc(P(=O)(O)O)cc1` (stereo unspecified) came in with an inhibition constant Ki of 260 nM. Take `C[C@@](N)(C(=O)O)c1ccc(C(=O)O)cc1` (racemic): the Ki came out at 334 nM.

With `N[C@@]1(C(=O)O)CC[C@H](C(=O)O)C1` [1S, 3R-ACPD], the affinity, expressed as Ki, was 9.33 nM.

In turn, `N[C@@H](Cn1oc(=O)[nH]c1=O)C(=O)O` [2-amino-3-(3,5-dioxo[1,2,4]oxadiazolidin-2-yl)propionic acid] showed a Ki of 178 nM. Against the preceding molecule, the Ki is about 19-fold higher. Then `N[C@H](CP(=O)(O)O)C(=O)O` [CAS_23052-80-4], with 263 nM; and `CCC(N)(CCC(=O)O)C(=O)O` (stereo unspecified) [CAS_5311079], with 376 nM; and `NC(Cn1cnc2c(=O)[nH]c(=O)[nH]c21)(C(=O)O)C1CC1C(=O)O` (stereo unspecified) [CAS_5311260], with 0.078 nM. Then `N[C@H](C(=O)O)C1[C@@H](C(=O)O)[C@@H]1C(=O)O` (stereo partly specified) [DCG-IV], with 0.368 nM. For `N[C@H](C(=O)O)[C@H]1C[C@H]1C(=O)O` [L-CCG-IV] the value was 0.378 nM; for `C[C@](N)(C(=O)O)C1C[C@@H]1C(=O)O` (stereo partly specified) [MCCG-I], 69 nM.
